Target: T1, Endothelial lipase (Homo sapiens, UniProt Q9Y5X9)
T1 sequence (Q9Y5X9 whole entry): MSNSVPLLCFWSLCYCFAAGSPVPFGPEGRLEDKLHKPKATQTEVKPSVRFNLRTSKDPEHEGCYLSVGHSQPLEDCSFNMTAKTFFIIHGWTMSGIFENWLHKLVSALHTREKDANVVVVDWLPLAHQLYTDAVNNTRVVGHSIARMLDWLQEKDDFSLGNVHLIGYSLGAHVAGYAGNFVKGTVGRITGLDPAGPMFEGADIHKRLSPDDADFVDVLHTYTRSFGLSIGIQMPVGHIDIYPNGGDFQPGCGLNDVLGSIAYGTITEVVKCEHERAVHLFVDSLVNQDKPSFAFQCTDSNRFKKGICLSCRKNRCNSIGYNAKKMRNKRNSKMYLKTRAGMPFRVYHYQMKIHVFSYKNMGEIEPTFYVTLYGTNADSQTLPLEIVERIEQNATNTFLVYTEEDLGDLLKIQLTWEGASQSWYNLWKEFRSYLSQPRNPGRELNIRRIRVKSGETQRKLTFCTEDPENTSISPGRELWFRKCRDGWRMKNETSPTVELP
Test: Endothelial Lipase Assay: To assay for cell surface lipase activity, cells expressing human endothelial lipase (EL) or LPL were plated in CellBIND® 384-well plates (Corning, Lowell, Mass.) in 25 μL serum free medium at a density of 2000 cells/well. After 18-24 hours incubation at 37° C., the medium was removed and replaced with 15 μL assay buffer [Hank's Buffered Saline Solution with 25 mM HEPES pH 7.2] and 15 μL PLA1 substrate for a final concentration of 10 μM using a Multidrop reagent dispenser. Fluorescence signal was monitored for 30 min at 37° C. on a Safire II plate reader in kinetic mode (60 cycles, kinetic interval: 30 seconds) with an excitation wavelength of 490 nm and an emission wavelength of 515 nm.
Type: cell-based

| IC50 | SMILES |
| --- | --- |
| 68 nM | NS(=O)(=O)N1CCn2c(CCc3ccccc3)c(C(F)(F)F)c3cccc(c32)C1 |
| 101 nM | CC(CC(=O)N1CCn2c(CCc3ccccc3)c(C(F)(F)F)c3cccc(c32)C1)C(F)(F)F (configuration not stated) |

Source: ChEMBL document CHEMBL3886450, “Tricyclic indole derivatives useful endothelial lipase inhibitors” (2015)
